Experimental data reported in US7795305B2, “CDDO-compounds and combination therapies thereof” (Board of Regents, The University of Texas System, priority 2000, dated 2010).
Structures can show the parent of a compound that is named as a salt. Numbered stars: 1 amine (or outer) side, 2 acyl side, 3 side chain; on linkers, the order of the positions; unused ones are H or OH. Bridge positions count the residues as written; N and C are the ends. Square brackets hold non-standard residues; d marks the D form. Peptide text beside a SMILES is read from it. I, II: the chains in the order shown. Actinocin(9to1) = Cc1c2oc3c(C)ccc(C(=O)[*:1])c3nc-2c(C(=O)[*:2])c(N)c1=O; NMeV = CN[C@H](C(=O)O)C(C)C; Sar = CNCC(=O)O

Key:
[1] = cited from earlier work; for terminal half-life: plasma; for peak concentration in plasma: usual clinical doses
[2] = cited from earlier work
[3] = test system: HL-60 cells; assay: CDDO-Me plus LG-100268 in HL-60 cells (Table 6); assay type: cell-based, human; parameters: unit not given here; conditions: 24 hrs
Description: (§1) Finally, the inventors examined if CDDO-Me combined with ATRA would enhance differentiation. HL-60 cells were cultured with of 0.1 μM of CDDO-Me for 72 hrs, alone or in combination with 1 μM ATRA. […] At 48 hrs, 67.4% in CDDO-Me-treated cells and 63.5% in ATRA-treated cells were CD11b+ (compared with 40% in DMSO controls), while 85% of cells were positive when both compounds were given simultaneously. These studies were repeated 3 times and yielded essentially identical results. Next, combined treatment with CDDO-Me and RXR-specific ligand were tested for potentiation of anti-leukemic effects. RXR-specific ligand LG-100268 (Ligand Pharmaceuticals) used at 10, 100 nm and 1 μM enhanced killing of HL-60 cells in a dose-dependent manner (Table 6).

[4] = test system: HL-60 cells; assay: Cell cycle (S+G2M) with RXR-specific ligand; assay type: cell-based, human; conditions: 1 μM of LG-100268, combined treatment with CDDO-Me
Description: Cell kinetic and DNA fragmentation studies. The cell cycle kinetics was determined by staining cells with acridine orange for cellular DNA and RNA content followed by flow cytometeric analysis as described. Samples were measured in a FACScan flow cytometer (Becton Dickinson, San Jose, Calif.) using the 488-nm line of a […] argon laser and filter settings for green (530 nm) (DNA) and red (585 nm) (RNA) fluorescence. Ten thousand events were stored in list mode for analysis. The percentage of cells in the “sub G1 peak” defined the proportion of apoptotic cells in the tested populations. […] Cell-cycle kinetics was analyzed using ModFit software (Verity Software House, Inc., Topsham, Me.).
as §1, with “RXR-specific ligand LG-100268 (Ligand Pharmaceuticals) used at 10, 100 nm and 1 μM enhanced killing of HL-60 cells in a dose-dependent manner (Table 6).” left out

[5] = test system: HL-60 cells; assay: Differentiation by CD11b/CD14 flow cytometry; assay type: cell-based, human
Description: Immunophenotyping. The PE-conjugated anti-CD11b, FITC-conjugated anti-CD14 monoclonal antibody (mAb) (Becton Dickinson) and PE-conjugated anti-CD95 mAb (PharMingen) were used at a 1/10 dilution.
Enhancement in cellular differentiation using combinations of CDDO with ATRA were tested. […] Cell differentiation was analyzed by flow cytometry (CD14/CD11b staining). […] These experiments were repeated. […]
Finally, the inventors examined if CDDO-Me combined with ATRA would enhance differentiation. […] […] Next, combined treatment with CDDO-Me and RXR-specific ligand were tested for potentiation of anti-leukemic effects.

[6] = test system: primary AML cells; assay: Apoptosis in primary AML samples, subG1 DNA flow cytometry; assay type: cell-based, human; conditions: ara-C 1 μM, alone or combined
Description: Subjects. Samples of bone marrow or peripheral blood were obtained for in vitro studies from patients with newly diagnosed or recurrent AML with high (>70%) blast count and from patients with myeloid transformation of chronic myeloid leukemia (CML). Informed consent was obtained following institutional guidelines. Mononuclear cells were separated by Ficoll-Hypaque (Sigma Chemical Co) density-gradient centrifugation.
(§2) Suspension culture of leukemic cells. Leukemic cell lines were cultured at a density of 3.0×10^5 cells/mL, and AML mononuclear cells at 5×10^5 cells/mL in the presence or absence of indicated concentrations of CDDO-Me. Appropriate amounts of DMSO (final concentration<0.05%) was included as a control. For cytotoxicity studies, 1 μM ara-C was added to the cultures.
Cell kinetic and DNA fragmentation studies. The cell cycle kinetics was determined by staining cells with acridine orange for cellular DNA and RNA content followed by flow cytometeric analysis as described. […] Ten thousand events were stored in list mode for analysis. The percentage of cells in the “sub G1 peak” defined the proportion of apoptotic cells in the tested populations. […] Cell-cycle kinetics was analyzed using ModFit software (Verity Software House, Inc., Topsham, Me.). […]

[7] = test system: primary AML samples; assay: Annexin V staining of primary AML samples exposed to PPARγ ligands; assay type: cell-based, human; conditions: 72 hrs; 15d-PGJ2 5 μM; BRL49653, L-805645, GW347845X 25 μM
Description: Annexin V staining. Cells were washed in phosphate-buffered saline (PBS) and resuspended in 100 μl of binding buffer containing Annexin V (Roche Diagnostic Corporation, Indianapolis, Ind.). Cells were analyzed by flow cytometry after the addition of propidium iodide (PI). Annexin V binds to those cells that express phosphatidylserine on the outer layer of the cell membrane, and PI stains the cellular DNA of those cells with a compromised cell membrane. This allows for live cells (unstained with either fluorochrome) to be discriminated from apoptotic cells (stained only with annexin V) and necrotic cells (stained with both annexin and PI).

[8] = test system: HL-60 cells; assay: Differentiation by CD11b/CD14 flow cytometry; assay type: cell-based, human; conditions: 7 days
[9] = test system: HL-60 cells; assay: Viable cell count of leukemic cells in suspension culture (Trypan blue); assay type: cell-based, human; conditions: Homo sapiens, HL-60, read-out: concentration required for 50% inhibition of HL-60 cells; PPARγ ligands compared to CDDO
Description: as §2
CDDO. […] The percentage of proliferating cells were analyzed by FCM.
CDDO-Me. […] Mechanism of growth inhibition was analyzed on cell cycle and apoptosis in HL-60 cells.

[10] = cited from earlier work; remark: listed apart in the source

## COc1cccc2c1C(=O)c1c(O)c3c(c(O)c1C2=O)C[C@@](O)(C(=O)CO)C[C@@H]3O[C@H]1C[C@H](N)[C@H](O)[C@H](C)O1 [Doxorubicin, 5,12-Naphthacenedione, (8s-cis)-10-[(3-amino-2,3,6-trideoxy-a-L-lyxo-hexopyranosyl)oxy]-7,8,9,10-tetrahydro-6,8,11-trihydroxy-8-(hydroxyacetyl)-1-methoxy-hydrochloride]
[1]; in vivo
  oral absorption: absorbed poorly
  elimination half-life: about 30 hr
  fraction of dose excreted/recovered in the urine: a few percent

## CS(=O)(=O)OCCCCOS(C)(=O)=O [busulfan, 1,4-butanediol dimethanesulfonate]
[2]; previously untreated chronic myelogenous leukemia
  adults obtaining hematologic remission: Approximately 90%

## Cc1cc2c(cc1C1(c3ccc(C(=O)O)cn3)CC1)C(C)(C)CCC2(C)C [LG-100268]
[3]; CDDO-Me 0, LG-100268 10 nM
  Table 6 value: CDDO-Me-induced monocytic differentiation in HL-60 cells: 6.8
[3]; CDDO-Me 0, LG-100268 100 nM
  Table 6 value: CDDO-Me-induced monocytic differentiation in HL-60 cells: 6.2
[3]; CDDO-Me 0, LG-100268 1 μM
  Table 6 value: CDDO-Me-induced monocytic differentiation in HL-60 cells: 6.3
[4]
  percentage of cells in S+G2M decreased by: 50%
[5]; CDDO 0, ligand 1 nM
  percentage of CD14 (+) live cells (FCM): 16.6%
[5]; CDDO 0, ligand 10 nM
  percentage of CD14 (+) live cells (FCM): 9.6%
[5]; CDDO 0, ligand 100 nM
  percentage of CD14 (+) live cells (FCM): 9.4%

## O=C(O)CCCc1ccc(N(CCCl)CCCl)cc1 [Chlorambucil, 4-[bis(2-chlorethyl)amino] benzenebutanoic acid]
[1]; in vivo
  oral absorption: rapidly and completely absorbed
[1]
  terminal half-life: ~1.5 h

## CC[C@]1(O)C[C@H]2CN(CCc3c([nH]c4ccccc34)[C@@](C(=O)OC)(c3cc4c(cc3OC)N(C=O)[C@H]3[C@@](O)(C(=O)OC)[C@H](OC(C)=O)[C@]5(CC)C=CCN6CC[C@]43[C@@H]65)C2)C1 [Vincristine]
[1]
  terminal half-life: about 24 hours
  peak concentration in plasma: approximately 0.4 mM

## COc1cccc2c1C(=O)c1c(O)c3c(c(O)c1C2=O)C[C@@](O)(C(C)=O)C[C@@H]3O[C@H]1C[C@H](N)[C@H](O)[C@H](C)O1 [Daunorubicin, 5,12-Naphthacenedione, (8S-cis)-8-acetyl-10-[(3-amino-2,3,6-trideoxy-α-L-lyxo-hexanopyranosyl)oxy]-7,8,9,10-tetrahydro-6,8,11-trihydroxy-10-methoxy-, hydrochloride]
[1]; in vivo
  oral absorption: Oral absorption is poor
  elimination half-life: about 19 hr
  fraction secreted/excreted into the bile: ~40%

## Nc1ccn([C@@H]2O[C@H](CO)[C@@H](O)[C@@H]2O)c(=O)n1 [ara-C, reference compound]
[6]; CDDO 1 μM, n=23 (DMSO control 27.7±3.7%)
  apoptosis in AML samples: 41.6±4.6%
[6]; CDDO-Me 1 μM, n=6 (DMSO control 24.9±7.4%)
  cell killing in AML samples: 39.8±8.2%

## CN(CCOc1ccc(CC2SC(=O)NC2=O)cc1)c1ccccn1 (centres unmarked) [BRL49653, rosiglitazone]
[7]
  annexin-V-positive cells: 7%
[8]; 10 μM (15d-PGJ2 column head prints M)
  CD11b %: 38.9%
[8]; 25 μM
  CD11b %: 48.5%
[9]
  IC50: 25 to 50 µM

## Cc1c2oc3c(C)ccc(C(=O)N[C@@H]4C(=O)N[C@H](C(C)C)C(=O)N5CCC[C@H]5C(=O)N(C)CC(=O)N(C)[C@@H](C(C)C)C(=O)O[C@@H]4C)c3nc-2c(C(=O)N[C@@H]2C(=O)N[C@H](C(C)C)C(=O)N3CCC[C@H]3C(=O)N(C)CC(=O)N(C)[C@@H](C(C)C)C(=O)O[C@@H]2C)c(N)c1=O [Actinomycin D] (I: T[dV]P[Sar][NMeV] / II: T[dV]P[Sar][NMeV]; ester I:1-I:C, II:1-II:C; linker I:N-II:N via Actinocin(9to1))
[1]; in vivo
  elimination half-life: about 36 hr
  fraction of dose excreted/recovered in the urine: 10%
  fraction secreted/excreted into the bile: Half of the dose

## O=NN(CCCl)C(=O)NC1CCCCC1 [Lomustine, 1-(2-chloro-ethyl)-3-cyclohexyl-1 nitrosourea]
[1]; oral radioactive lomustine 30 mg/m^2 to 100 mg/m^2
  radioactivity excreted as degradation products within 24 hours: about half of the radioactivity

## CC[C@]1(O)C[C@@H]2CN(CCc3c([nH]c4ccccc34)[C@@](C(=O)OC)(c3cc4c(cc3OC)N(C)[C@H]3[C@@](O)(C(=O)OC)[C@H](OC(C)=O)[C@]5(CC)C=CCN6CC[C@]43[C@@H]65)C2)C1 [Vinblastine]
[1]; in vivo
  fraction of dose excreted/recovered in the urine: Approximately 15%
  fraction recovered in the feces after biliary excretion: about 10%
[1]
  peak concentration in plasma: approximately 0.4 mM

## COc1cccc2c1C(=O)c1c(O)c3c(c(O)c1C2=O)C[C@@](O)([C@H](C)O)C[C@@H]3O[C@H]1C[C@H](N)[C@H](O)[C@H](C)O1 [daunorubicinol]
[1]; in vivo
  elimination half-life: about 27 hr

## N[C@@H](Cc1ccc(N(CCCl)CCCl)cc1)C(=O)O [Melphalan, 4-[bis(2-chloroethyl)amino]-L-phenylalanine]
[2]; multiple myeloma, oral administration
  patients with favorable response: about one third to one half

## Bleomycin
[1]; in vivo
  fraction of dose excreted/recovered in the urine: 60% to 70

## CO[C@@]12[C@H](COC(N)=O)C3=C(C(=O)C(C)=C(N)C3=O)N1C[C@@H]1N[C@@H]12 [Mitomycin]
[1]; after 30 mg bolus injection
  time required to reduce the serum concentration by 50%: 17 min
[1]; in vivo
  fraction of dose excreted/recovered in the urine: Approximately 10%

## CC1=C(/C=C/C(C)=C/C=C/C(C)=C/C(=O)O)C(C)(C)CCC1 [ATRA, all-trans-retinoic acid, reference compound]
[2]; acute promyelocytic leukemia (Warrell et al., 1991)
  patients achieving complete remissions: over 90%
[5]; 48 hrs, CDDO-Me 0.1 μM, ATRA 1 μM, alone or simultaneously (DMSO controls 40%)
  CD11b+ cells: 63.5%
[5]; CDDO 0, ligand 1 nM
  percentage of CD14 (+) live cells (FCM): 4%
[5]; CDDO 0, ligand 10 nM
  percentage of CD14 (+) live cells (FCM): 5.2%
[5]; CDDO 0, ligand 100 nM
  percentage of CD14 (+) live cells (FCM): 4.4%

## TRAIL: member of tumor necrosis factor family of cytokines
[10]; 250-500 μg (Gliniak et al, 1999)
  effect of chemotherapy in mice bearing human colon carcinoma tumors: synergistically enhanced effect of chemotherapy
[10]; daily injections of 200-1000 μg (14 days) (Walczak et al., 1999)
  survival of tumor-bearing mice: significantly increased survival

## N.N.[Cl][Pt][Cl] [Cisplatin]
[1]; in vivo
  oral absorption: not absorbed orally
